The record followed here is patent US20140094465A1, “Compounds as S-Nitrosoglutathione Reductase Inhibitors” (N30 PHARMACEUTICALS, INC., priority 2011, published 2014).

pIC50: −log10 of the molar value.

T1 sequence (P11766 whole entry): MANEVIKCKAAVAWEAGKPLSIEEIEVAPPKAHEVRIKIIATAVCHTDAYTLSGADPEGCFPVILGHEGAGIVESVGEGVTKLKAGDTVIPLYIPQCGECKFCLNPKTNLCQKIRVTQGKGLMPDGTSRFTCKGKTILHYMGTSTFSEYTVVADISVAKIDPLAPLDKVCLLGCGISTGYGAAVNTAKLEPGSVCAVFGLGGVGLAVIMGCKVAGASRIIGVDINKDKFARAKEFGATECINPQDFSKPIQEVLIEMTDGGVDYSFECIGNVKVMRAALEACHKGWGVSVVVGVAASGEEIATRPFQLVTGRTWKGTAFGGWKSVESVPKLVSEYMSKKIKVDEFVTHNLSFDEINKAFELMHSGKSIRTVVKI

The first assay has as its target T1, S-nitrosoglutathione reductase (GSNOR) (Homo sapiens, UniProt P11766).
T1 construct: made in house; host or cells: E. coli
The assay can be described thus: GSNOR assay (inhibition of GSNOR activity, NADH absorbance at 340 nm). Type of assay: biochemical.
Conditions: not given
As to the method:
Various compounds were tested in vitro for their ability to inhibit GSNOR activity.
GSNOR expression and purification is described in Biochemistry 2000, 39, 10720-10729.
Pre-cultures were grown from stabs of a GSNOR glycerol stock in 2XYT media containing 100 ug/ml ampicillin after an overnight incubation at 37° C. […] GSNOR expression was induced with 0.1% arabinose in an overnight incubation at 20° C.
E. coli cell paste was lysed by nitrogen cavitation and the clarified lysate purified by Ni affinity chromatography on an AKTA FPLC (Amersham Pharmacia). The column was eluted in 20 mM Tris pH 8.0/250 mM NaCl with a 0-500 mM imidazole gradient. Eluted GSNOR fractions containing the Smt-GSNOR fusion were digested overnight with Ulp-1 at 4° C. to remove the affinity tag then re-run on the Ni column under the same conditions. GSNOR was recovered in the flowthrough fraction and for crystallography is further purified by Q-Sepharose and Heparin flowthrough chromatography in 20 mM Tris pH 8.0, 1 mM DTT, 10 uM ZnSO4.
GSNOR assay: GSNO and enzyme/NADH Solutions are made up fresh each day. The solutions are filtered and allowed to warm to room temperature. GSNO solution: 100 mM NaPO4 (pH 7.4), 0.480 mM GSNO. 396 μL of GSNO Solution is added to a cuvette followed by 8 μL of test compound in DMSO (or DMSO only for full reaction control) and mixed with the pipette tip. Compounds to be tested are made up at a stock concentration of 10 mM in 100% DMSO. 2 fold serial dilutions are done in 100% DMSO. 8 μL of each dilution are added to an assay so that the final concentration of DMSO in the assay is 1%. The concentrations of compounds tested range from 100 to 0.003 μM. Enzyme/NADH solution: 100 mM NaPO4 (pH 7.4), 0.600 mM NADH, 1.0 μg/mL GSNO Reductase. 396 μL of the Enzyme/NADH solution is added to the cuvette to start the reaction. The cuvette is placed in the Cary 3E UV/Visible Spectrophotometer and the change in 340 nm absorbance/min at 25° C. is recorded for 3 minutes. The assays are done in triplicate for each compound concentration. IC50's for each compound are calculated using the standard curve analysis in the Enzyme Kinetics Module of SigmaPlot.
Final assay conditions: 100 mM NaPO4, pH 7.4, 0.240 mM GSNO, 0.300 mM NADH, 0.5 μg/mL GSNO Reductase, and 1% DMSO. Final volume: 800 μL/cuvette.
In turn, `O=C(O)c1ccc(-n2c(C(F)(F)F)nc3cc(O)ccc3c2=O)cc1` [VIII-2, 4-(7-hydroxy-4-oxo-2-(trifluoromethyl)quinazolin-3(4H)-yl)benzoic acid] gave a pIC50 of 6.00 to 7.00.

Still in this assay, the particulars now being: GSNOR inhibitor activity, Tables 1-6; read-out: IC50 range.
As to `O=c1[nH]nc(-c2ccc(-c3ccc4cc(O)ccc4n3)cc2)o1` [Compound I-24], the pIC50 was > 7.00.

Consider `CN(C)c1cc(C(=O)O)ccc1-c1ccc2cc(O)ccc2c1` [III-5], for which the pIC50 was > 7.00.

Take `O=C(O)c1ccc(-c2cc(F)c3cc(O)ccc3n2)c(Cl)c1` [Compound I-37, 3-chloro-4-(4-fluoro-6-hydroxyquinolin-2-yl)benzoic acid]: the pIC50 was > 7.00.

For `O=C(O)c1ccc(-c2cc3ccc(O)cc3cn2)c(F)c1` [II-24, 3-fluoro-4-(7-hydroxyisoquinolin-3-yl)benzoic acid], the pIC50 is > 7.00.

Consider `O=C(O)c1ccc(Oc2c(C(F)(F)F)oc3cc(O)ccc3c2=O)cc1O` [Compound V-13, 2-hydroxy-4-(7-hydroxy-4-oxo-2-(trifluoromethyl)-4H-chromen-3-yloxy)benzoic acid], for which the pIC50 is 6.00 to 7.00.

`O=C(O)C1CC=C(c2nc3ccc(O)cc3nc2C(F)(F)F)CC1` (stereo not drawn) [II-12]: the pIC50 was > 7.00.

In the case of `COc1cc(C(=O)O)ccc1-c1c(C(F)(F)F)oc2cc(O)ccc2c1=O` [IV-20], the pIC50 is > 7.00.

For the compound `O=C(O)c1ccc(NCc2ccc(O)cc2F)c(F)c1` [VI-33, 3-fluoro-4-((2-fluoro-4-hydroxybenzyl)amino)benzoic acid], the pIC50 was 5.00 to 6.00.

Regarding `O=C(O)c1ccc(-c2cc3ccc(O)cc3cc2Cl)cc1` [III-22, 4-(3-chloro-6-hydroxynaphthalen-2-yl)benzoic acid], the pIC50 is > 7.00.

`COc1cc(C(=O)O)ccc1-c1ccc2cc(O)ccc2n1` [Compound I-14]: the pIC50 is > 7.00.

As to `O=C(O)c1ccc(-c2ncc3cc(O)ccc3n2)c(Cl)c1` [II-3], the negative-log IC50 (pIC50) was > 7.00.

Regarding `Cc1sc2cc(O)ccc2c(=O)c1-c1ccc(-c2nnn[nH]2)cc1` [IV-34], the pIC50 is > 7.00.

Take `CS(=O)(=O)NC(=O)c1ccc(-c2c(C(F)(F)F)oc3cc(O)ccc3c2=O)cc1` [IV-32]: the pIC50 is 6.00 to 7.00.

Regarding `Cc1c(-c2ccc(C(=O)O)cc2)ncc2cc(O)ccc12` [II-25, 4-(7-hydroxy-4-methylisoquinolin-3-yl)benzoic acid], the pIC50 is 6.00 to 7.00.

Take `O=c1nc(-c2ccc(-c3ccc4cc(O)ccc4n3)cc2)[nH]s1` [Compound I-29]: the pIC50 is 6.00 to 7.00.

With `O=C(O)c1ccc(NC(=O)c2ccc(O)cc2O)cc1` [VI-16, 4-(2,4-dihydroxybenzamido)benzoic acid], the pIC50 was 5.00 to 6.00.

`Cc1cc(C(=O)O)ccc1-c1ccc2c(F)c(O)ccc2c1` [III-33]: the pIC50 is > 7.00.

In the case of `O=C(O)C1CCN(c2ccc3cc(O)ccc3n2)CC1` [Compound I-5], the pIC50 is 5.00 to 6.00.

As for `O=C(O)c1ccc(Oc2c(-c3ccccc3)oc3cc(O)ccc3c2=O)cc1` [Compound V-2, 4-((7-hydroxy-4-oxo-2-phenyl-4H-chromen-3-yl)oxy)benzoic acid], the negative-log IC50 (pIC50) is 5.00 to 6.00.

For the compound `O=C(O)c1ccc(-c2cc3ccc(O)cc3cc2O)cc1` [III-25, 4-(3,6-dihydroxynaphthalen-2-yl)benzoic acid], the pIC50 is 5.00 to 6.00.

`COc1cc(-c2ccc3cc(O)ccc3n2)ccc1C(=O)O` [Compound I-59, 4-(6-hydroxyquinolin-2-yl)-2-methoxybenzoic acid]: the pIC50 is 6.00 to 7.00.

Turning to `COc1cc(-c2ccc3cc(O)ccc3c2)ccc1C(=O)O` [III-34, 4-(6-hydroxynaphthalen-2-yl)-2-methoxybenzoic acid], the pIC50 was 6.00 to 7.00.

As for `O=C(O)c1ccc(CC(=O)c2ccc(O)cc2F)c(F)c1` [VI-2, 3-fluoro-4-(2-(2-fluoro-4-hydroxyphenyl)-2-oxoethyl)benzoic acid], the pIC50 is > 7.00.

For the compound `O=C(O)c1ccc(-c2ccc3cc(O)cc(F)c3n2)cc1` [Compound I-54, 4-(8-fluoro-6-hydroxyquinolin-2-yl)benzoic acid], the pIC50 is > 7.00.

As to `O=C(O)c1ccc(Sc2c(C(F)(F)F)oc3cc(O)ccc3c2=O)cc1` [Compound V-11, 4-(7-hydroxy-4-oxo-2-(trifluoromethyl)-4H-chromen-3-ylthio)benzoic acid], the negative logarithm of the IC50 (pIC50) was 5.00 to 6.00.

Regarding `O=C(O)c1ccc(-c2ccc3cc(O)ccc3n2)c(Br)c1` [Compound I-46, 3-bromo-4-(6-hydroxyquinolin-2-yl)benzoic acid], the pIC50 was > 7.00.

For `O=C(O)[C@H]1CC[C@@H](c2nc3ccc(O)cc3nc2C(F)(F)F)CC1` [II-28, (cis)-4-(6-hydroxy-3-(trifluoromethyl)quinoxalin-2-yl)cyclohexanecarboxylic acid], the pIC50 was 5.00 to 6.00.

Consider `O=C(O)[C@H]1CC[C@@H](c2nc3ccc(O)cc3cc2C(F)(F)F)CC1` [Compound I-44], for which the pIC50 was 5.00 to 6.00.

Turning to `O=C(O)[C@H]1CC[C@H](c2nc3ccc(O)cc3cc2Cl)CC1` [Compound I-35], the pIC50 was 6.00 to 7.00.

For the compound `O=C(O)c1ccc(CC(=O)c2ccc(O)cc2O)c(F)c1` [VI-18, 4-(2-(2,4-dihydroxyphenyl)-2-oxoethyl)-3-fluorobenzoic acid], the pIC50 was 6.00 to 7.00.

As to `O=C(O)c1ccc(-c2ccc3c(F)c(O)ccc3c2)c(F)c1` [III-32], the pIC50 was > 7.00.

As for `O=C(O)c1ccc(-c2cc(F)c3cc(O)ccc3n2)cc1` [Compound I-26, 4-(4-fluoro-6-hydroxyquinolin-2-yl)benzoic acid], the negative logarithm of the IC50 (pIC50) was > 7.00.

Turning to `O=c1[nH]c(-c2ccc(-c3c(C(F)(F)F)oc4cc(O)ccc4c3=O)cc2)ns1` [IV-33], the pIC50 was > 7.00.

`O=c1[nH]c(-c2ccc(-c3c(C(F)(F)F)oc4cc(O)ccc4c3=O)c(Cl)c2)no1` [IV-40]: the pIC50 is > 7.00.

For `O=c1nc(-c2ccc(-c3ccc4cc(O)ccc4n3)cc2)s[nH]1` [Compound I-39], the pIC50 is 6.00 to 7.00.

The same assay, now with this note: GSNOR; read-out: IC50.
`O=C(O)c1ccc(CC(=O)c2ccc(O)cc2F)c(F)c1` [VI-2, 3-fluoro-4-(2-(2-fluoro-4-hydroxyphenyl)-2-oxoethyl)benzoic acid]: the pIC50 was > 7.00.

Still in this assay, the particulars now being: Table 7; GSNOR inhibition, IC50 range class a/b/c; read-out: IC50.
Turning to `O=C(O)c1ccc(-c2ncc(-c3ccc(O)cc3)cn2)cc1` [VII-14, 4-(5-(4-hydroxyphenyl)pyrimidin-2-yl)benzoic acid], the pIC50 is 5.00 to 6.00.

As for `O=C(O)c1ccc(-c2ccc(-c3ccc(O)cc3)cc2)cc1` [VII-11, 4″-hydroxy-[1,1′:4′,1″-terphenyl]-4-carboxylic acid], the pIC50 was 6.00 to 7.00.

For the compound `CCOCCn1c(-c2ccc(O)cc2)ccc1-c1ccc(C(=O)O)cc1` [VII-35, 4-(1-(2-ethoxyethyl)-5-(4-hydroxyphenyl)-1H-pyrrol-2-yl)benzoic acid], the pIC50 is > 7.00.

`O=C(O)c1ccc(-c2ccc(-c3ccc(O)cc3F)s2)cc1` [VII-8, 4-(5-(2-fluoro-4-hydroxyphenyl)thiophen-2-yl)benzoic acid]: the pIC50 is 6.00 to 7.00.

For `CC(C)n1c(-c2ccc(O)cc2)ccc1-c1ccc(C(=O)O)cc1` [VII-32, 4-(5-(4-hydroxyphenyl)-1-isopropyl-1H-pyrrol-2-yl)benzoic acid], the pIC50 was > 7.00.

For the compound `O=C(O)c1ccc(-c2ncc(-c3ccc(O)cc3)s2)s1` [VII-13, 5-(5-(4-hydroxyphenyl)thiazol-2-yl)thiophene-2-carboxylic acid], the pIC50 was 6.00 to 7.00.

As to `O=C(O)c1cccc(-c2csc(-c3ccc(O)cc3)n2)c1` [VII-18, 3-(2-(4-hydroxyphenyl)thiazol-4-yl)benzoic acid], the pIC50 is 5.00 to 6.00.

Still in this assay, the particulars now being: Table 8; GSNOR inhibition, IC50 range class a/b/c; read-out: IC50.
In the case of `CC1Cc2cc(O)ccc2C(=O)N1[C@H]1CC[C@H](C(=O)O)CC1` (stereo partly drawn) [VIII-17, (trans)-4-(6-hydroxy-3-methyl-1-oxo-3,4-dihydroisoquinolin-2(1H)-yl)cyclohexanecarboxylic acid], the pIC50 is 5.00 to 6.00.

With `O=C1c2ccc(O)cc2CCN1[C@H]1CC[C@H](C(=O)O)CC1` [VIII-16, (trans)-4-(6-hydroxy-1-oxo-3,4-dihydroisoquinolin-2(1H)-yl)cyclohexanecarboxylic acid], the pIC50 was 5.00 to 6.00.

On to `O=C(O)c1ccc(-c2cc(=O)c3cc(O)ccc3[nH]2)c(F)c1` [VIII-8, 3-fluoro-4-(6-hydroxy-4-oxo-1,4-dihydroquinolin-2-yl)benzoic acid], for which the pIC50 was 5.00 to 6.00.

In the case of `Cc1cc2cc(O)ccc2c(=O)n1-c1ccc(C(=O)O)cc1` [VIII-13, 4-(6-hydroxy-3-methyl-1-oxoisoquinolin-2(1H)-yl)benzoic acid], the pIC50 was 6.00 to 7.00.

What is called pIC50 is the IC50 on a negative log10 scale, so that one unit is a factor of ten.
